How the values were obtained:
Assay in all cases: combination Emax (second highest fraction inhibited in the dose matrix, 72 h); higher = more inhibition; extreme values may be limits of the assay
[1] = system: CAL-51 (Breast Carcinoma)
Procedure, shortened: (§1)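 Cell lines in DMEM/F12 or RPMI with 10% FBS were plated in 1536-well plates, held 24 hours at 37°C, 5% CO2, then given two-drug dose matrices for 72 hours (DMSO typically 0.2%). Viability was read by CellTiter-Glo 2.0 luminescence and scaled as inhibition from 0 (vehicle wells) to 1 (blank wells). Combination Emax is the second-highest inhibition in the matrix; Bliss excess is observed combination effect minus expected EA + EB − EA·EB, EA and EB being single-agent effects.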

[2] = system: OC-314 (Ovarian Carcinoma)
Procedure, shortened: as §1

SIMA (Neuroblastoma) = system: SIMA (Neuroblastoma)
Procedure, shortened: as §1

[3] = system: MDA-MB-468 (Breast Carcinoma)
Procedure, shortened: as §1

[4] = system: RKO (Colorectal Carcinoma)
Procedure, shortened: as §1

NCI-H28 (Mesothelioma) = system: NCI-H28 (Mesothelioma)
Procedure, shortened: as §1

HMV-II (Melanoma) = system: HMV-II (Melanoma)
Procedure, shortened: as §1

[5] = system: SW626 (Colorectal Carcinoma)
Procedure, shortened: as §1

[6] = system: CAL-54 (Kidney Carcinoma)
Procedure, shortened: as §1

Cc1c2c(nn1C)CSCc1cc(n(C)n1)CSc1cc(c3ccccc3c1)OCCCc1c(C(=O)O)n(C)c3c-2c(Cl)ccc13 [AZD5991] + Cc1cc2ncnn2cc1Nc1ncc2c(n1)n(C1CCOCC1)c(=O)n2C [AZD7648] (first compound max 1 µM, 7x7, partner max 10 µM)
combination Emax [1]: 0.365
combination Emax [2]: 0.297
combination Emax (SIMA (Neuroblastoma)): 0.543
combination Emax [3]: 0.462
combination Emax [4]: 0.364
combination Emax (NCI-H28 (Mesothelioma)): 0.298
combination Emax (HMV-II (Melanoma)): 0.273
combination Emax [5]: 0.224
combination Emax [6]: 0.367

NC1(C(=O)N[C@@H](CCO)c2ccc(Cl)cc2)CCN(c2ncnc3[nH]ccc23)CC1 [Capivasertib] + CCN(CCO)CCCOc1ccc2c(Nc3cc(CC(=O)Nc4cccc(F)c4)[nH]n3)ncnc2c1 [AZD2811] (first compound max 10 µM, 7x7, partner max 1 µM)
combination Emax [1]: 0.651
combination Emax [2]: 0.571
combination Emax [3]: 0.561
combination Emax [4]: 0.615
combination Emax (NCI-H28 (Mesothelioma)): 0.416
combination Emax (HMV-II (Melanoma)): 0.445
combination Emax [5]: 0.292
combination Emax [6]: 0.545

NC1(C(=O)N[C@@H](CCO)c2ccc(Cl)cc2)CCN(c2ncnc3[nH]ccc23)CC1 [Capivasertib] + COc1nnc2ccc(N3CCC(c4ccc(OCCN5CCN(C)C(=O)[C@H]5C)cc4)CC3)nn12 [AZD5153] (first compound max 10 µM, 7x7, partner max 1 µM)
combination Emax [1]: 0.651
combination Emax [2]: 0.818
combination Emax [3]: 0.666
combination Emax [4]: 0.842
combination Emax (NCI-H28 (Mesothelioma)): 0.453
combination Emax (HMV-II (Melanoma)): 0.588
combination Emax [5]: 0.642
combination Emax [6]: 0.775

NC1(C(=O)N[C@@H](CCO)c2ccc(Cl)cc2)CCN(c2ncnc3[nH]ccc23)CC1 [Capivasertib] + C[C@@H]1COCCN1C2=NC(=NC(=C2)C3(CC3)[S@](=N)(=O)C)C4=C5C=CNC5=NC=C4 [AZD6738] (first compound max 10 µM, 7x7, partner max 10 µM)
combination Emax [1]: 0.936
combination Emax [2]: 0.793
combination Emax [3]: 0.726
combination Emax [4]: 0.938
combination Emax (NCI-H28 (Mesothelioma)): 0.512
combination Emax (HMV-II (Melanoma)): 0.465
combination Emax [5]: 0.68
combination Emax [6]: 0.813

NC1(C(=O)N[C@@H](CCO)c2ccc(Cl)cc2)CCN(c2ncnc3[nH]ccc23)CC1 [Capivasertib] + Cn1cnc2c(F)c(Nc3ccc(Br)cc3Cl)c(C(=O)NOCCO)cc21 [Selumetinib] (first compound max 10 µM, 7x7, partner max 10 µM)
combination Emax [1]: 0.596
combination Emax [2]: 0.604
combination Emax [3]: 0.741
combination Emax [4]: 0.876
combination Emax (NCI-H28 (Mesothelioma)): 0.404
combination Emax (HMV-II (Melanoma)): 0.838
combination Emax [5]: 0.65
combination Emax [6]: 0.611

Cc1nc(Nc2ncc(C(=O)Nc3c(C)cccc3Cl)s2)cc(N2CCN(CCO)CC2)n1 [Dasatinib] + CC(=O)Nc1cccc(-n2c(=O)n(C3CC3)c(=O)c3c(Nc4ccc(I)cc4F)n(C)c(=O)c(C)c32)c1 [Trametinib] (first compound max 2 µM, 7x7, partner max 1 µM)
combination Emax [1]: 0.43
combination Emax [2]: 0.781
combination Emax [3]: 0.621
combination Emax [4]: 0.885
combination Emax (NCI-H28 (Mesothelioma)): 0.721
combination Emax (HMV-II (Melanoma)): 0.786
combination Emax [5]: 0.849
combination Emax [6]: 0.958

CS(=O)(=O)CCNCc1ccc(-c2ccc3ncnc(Nc4ccc(OCc5cccc(F)c5)c(Cl)c4)c3c2)o1 [Lapatinib] + C[C@@H](Oc1cc(-c2cnn(C3CCNCC3)c2)cnc1N)c1c(Cl)ccc(F)c1Cl [Crizotinib] (first compound max 10 µM, 7x7, partner max 10 µM)
combination Emax [1]: 0.691
combination Emax [2]: 0.881
combination Emax [3]: 0.959
combination Emax [4]: 0.942
combination Emax (NCI-H28 (Mesothelioma)): 0.622
combination Emax (HMV-II (Melanoma)): 0.912
combination Emax [5]: 0.626
combination Emax [6]: 0.916

CC(=O)c1c(C)c2cnc(Nc3ccc(N4CCNCC4)cn3)nc2n(C2CCCC2)c1=O [Palbociclib] + CC1(C)CCC(CN2CCN(c3ccc(C(=O)NS(=O)(=O)c4ccc(NCC5CCOCC5)c([N+](=O)[O-])c4)c(Oc4cnc5[nH]ccc5c4)c3)CC2)=C(c2ccc(Cl)cc2)C1 [Venetoclax] (first compound max 10 µM, 7x7, partner max 1 µM)
combination Emax [1]: 0.219
combination Emax [2]: 0.334
combination Emax [3]: 0.261
combination Emax [4]: 0.315
combination Emax (NCI-H28 (Mesothelioma)): 0.389
combination Emax (HMV-II (Melanoma)): 0.494
combination Emax [5]: 0.153
combination Emax [6]: 0.527

CC(=O)c1c(C)c2cnc(Nc3ccc(N4CCNCC4)cn3)nc2n(C2CCCC2)c1=O [Palbociclib] + Cc1c2c(nn1C)CSCc1cc(n(C)n1)CSc1cc(c3ccccc3c1)OCCCc1c(C(=O)O)n(C)c3c-2c(Cl)ccc13 [AZD5991] (first compound max 10 µM, 7x7, partner max 1 µM)
combination Emax [1]: 0.357
combination Emax [2]: 0.334
combination Emax [3]: 0.463
combination Emax [4]: 0.472
combination Emax (NCI-H28 (Mesothelioma)): 0.413
combination Emax (HMV-II (Melanoma)): 0.625
combination Emax [5]: 0.336
combination Emax [6]: 0.583

CC(=O)c1c(C)c2cnc(Nc3ccc(N4CCNCC4)cn3)nc2n(C2CCCC2)c1=O [Palbociclib] + Cn1cnc2c(F)c(Nc3ccc(Br)cc3Cl)c(C(=O)NOCCO)cc21 [Selumetinib] (first compound max 10 µM, 7x7, partner max 10 µM)
combination Emax [1]: 0.289
combination Emax [2]: 0.478
combination Emax [3]: 0.441
combination Emax [4]: 0.715
combination Emax (NCI-H28 (Mesothelioma)): 0.379
combination Emax (HMV-II (Melanoma)): 0.809
combination Emax [5]: 0.531
combination Emax [6]: 0.616

CC(=O)Nc1cccc(-n2c(=O)n(C3CC3)c(=O)c3c(Nc4ccc(I)cc4F)n(C)c(=O)c(C)c32)c1 [Trametinib] + Cc1nc(-c2cn3c(n2)-c2ccc(-c4cnn(C(C)(C)C(N)=O)c4)cc2OCC3)n(C(C)C)n1 [Taselisib] (first compound max 1 µM, 7x7, partner max 10 µM)
combination Emax [1]: 0.886
combination Emax [2]: 0.707
combination Emax [3]: 0.799
combination Emax [4]: 0.956
combination Emax (NCI-H28 (Mesothelioma)): 0.632
combination Emax (HMV-II (Melanoma)): 0.926
combination Emax [5]: 0.75
combination Emax [6]: 0.763

CC1(C)CCC(CN2CCN(c3ccc(C(=O)NS(=O)(=O)c4ccc(NCC5CCOCC5)c([N+](=O)[O-])c4)c(Oc4cnc5[nH]ccc5c4)c3)CC2)=C(c2ccc(Cl)cc2)C1 [Venetoclax] + C1CN(CCC1(C(=O)N[C@@H](CCO)C2=CC=C(C=C2)Cl)N)C3=NC=NC4=C3C=CN4 [Capivasertib] (first compound max 1 µM, 7x7, partner max 3 µM)
combination Emax [1]: 0.487
combination Emax [2]: 0.316
combination Emax [3]: 0.511
combination Emax [4]: 0.36
combination Emax (NCI-H28 (Mesothelioma)): 0.216
combination Emax (HMV-II (Melanoma)): 0.236
combination Emax [5]: 0.161
combination Emax [6]: 0.325

CC1(C)CCC(CN2CCN(c3ccc(C(=O)NS(=O)(=O)c4ccc(NCC5CCOCC5)c([N+](=O)[O-])c4)c(Oc4cnc5[nH]ccc5c4)c3)CC2)=C(c2ccc(Cl)cc2)C1 [Venetoclax] + C=CCn1c(=O)c2cnc(Nc3ccc(N4CCN(C)CC4)cc3)nc2n1-c1cccc(C(C)(C)O)n1 [AZD1775] (first compound max 1 µM, partner max 1 µM)
combination Emax [1]: 0.851
combination Emax [2]: 0.933
combination Emax [3]: 0.521
combination Emax [4]: 0.88
combination Emax (NCI-H28 (Mesothelioma)): 0.336
combination Emax (HMV-II (Melanoma)): 0.484
combination Emax [5]: 0.647
combination Emax [6]: 0.795

CC1(C)CCC(CN2CCN(c3ccc(C(=O)NS(=O)(=O)c4ccc(NCC5CCOCC5)c([N+](=O)[O-])c4)c(Oc4cnc5[nH]ccc5c4)c3)CC2)=C(c2ccc(Cl)cc2)C1 [Venetoclax] + CCN(CCO)CCCOc1ccc2c(Nc3cc(CC(=O)Nc4cccc(F)c4)[nH]n3)ncnc2c1 [AZD2811] (first compound max 1 µM, 7x7, partner max 1 µM)
combination Emax [1]: 0.349
combination Emax [2]: 0.419
combination Emax [3]: 0.624
combination Emax [4]: 0.27
combination Emax (NCI-H28 (Mesothelioma)): 0.255
combination Emax (HMV-II (Melanoma)): 0.263
combination Emax [5]: 0.212
combination Emax [6]: 0.251

CC1(C)CCC(CN2CCN(c3ccc(C(=O)NS(=O)(=O)c4ccc(NCC5CCOCC5)c([N+](=O)[O-])c4)c(Oc4cnc5[nH]ccc5c4)c3)CC2)=C(c2ccc(Cl)cc2)C1 [Venetoclax] + CN(C)CCCOc1ccc(-c2ccc3ncc4c(c3c2)n(C2CCOCC2)c(=O)n4C)cn1 [AZD0156] (first compound max 1 µM, 7x7, partner max 1 µM)
combination Emax [1]: 0.242
combination Emax [2]: 0.316
combination Emax [3]: 0.377
combination Emax [4]: 0.381
combination Emax (NCI-H28 (Mesothelioma)): 0.193
combination Emax (HMV-II (Melanoma)): 0.289
combination Emax [5]: 0.111
combination Emax [6]: 0.239

CC1(C)CCC(CN2CCN(c3ccc(C(=O)NS(=O)(=O)c4ccc(NCC5CCOCC5)c([N+](=O)[O-])c4)c(Oc4cnc5[nH]ccc5c4)c3)CC2)=C(c2ccc(Cl)cc2)C1 [Venetoclax] + COc1cc(Nc2ncc3c(n2)-c2ccc(Cl)cc2C(c2c(F)cccc2OC)=NC3)ccc1C(=O)O [Alisertib] (first compound max 1 µM, 7x7, partner max 10 µM)
combination Emax [1]: 0.574
combination Emax [2]: 0.504
combination Emax [3]: 0.748
combination Emax [4]: 0.487
combination Emax (NCI-H28 (Mesothelioma)): 0.348
combination Emax (HMV-II (Melanoma)): 0.363
combination Emax [5]: 0.314
combination Emax [6]: 0.523

CC1(C)CCC(CN2CCN(c3ccc(C(=O)NS(=O)(=O)c4ccc(NCC5CCOCC5)c([N+](=O)[O-])c4)c(Oc4cnc5[nH]ccc5c4)c3)CC2)=C(c2ccc(Cl)cc2)C1 [Venetoclax] + C[C@@H]1COCCN1C2=NC(=NC(=C2)C3(CC3)[S@](=N)(=O)C)C4=C5C=CNC5=NC=C4 [AZD6738] (first compound max 1 µM, 7x7, partner max 10 µM)
combination Emax [1]: 0.909
combination Emax [2]: 0.897
combination Emax [3]: 0.624
combination Emax [4]: 0.869
combination Emax (NCI-H28 (Mesothelioma)): 0.472
combination Emax (HMV-II (Melanoma)): 0.464
combination Emax [5]: 0.638
combination Emax [6]: 0.768

CC1(C)CCC(CN2CCN(c3ccc(C(=O)NS(=O)(=O)c4ccc(NCC5CCOCC5)c([N+](=O)[O-])c4)c(Oc4cnc5[nH]ccc5c4)c3)CC2)=C(c2ccc(Cl)cc2)C1 [Venetoclax] + C[C@@H](Nc1cc(F)cc(F)c1)c1cc(C(=O)N(C)C)cc2c(=O)cc(N3CCOCC3)oc12 [AZD8186] (first compound max 1 µM, 7x7, partner max 3 µM)
combination Emax [1]: 0.0234
combination Emax [2]: 0.242
combination Emax [3]: 0.387
combination Emax [4]: 0.113
combination Emax (NCI-H28 (Mesothelioma)): 0.115
combination Emax (HMV-II (Melanoma)): 0.263
combination Emax [5]: 0.127
combination Emax [6]: 0.533

CC1(C)CCC(CN2CCN(c3ccc(C(=O)NS(=O)(=O)c4ccc(NCC5CCOCC5)c([N+](=O)[O-])c4)c(Oc4cnc5[nH]ccc5c4)c3)CC2)=C(c2ccc(Cl)cc2)C1 [Venetoclax] + Cc1cc2ncnn2cc1Nc1ncc2c(n1)n(C1CCOCC1)c(=O)n2C [AZD7648] (first compound max 1 µM, 7x7, partner max 10 µM)
combination Emax [1]: 0.289
combination Emax [2]: 0.251
combination Emax [3]: 0.397
combination Emax [4]: 0.275
combination Emax (NCI-H28 (Mesothelioma)): 0.216
combination Emax (HMV-II (Melanoma)): 0.263
combination Emax [5]: 0.136
combination Emax [6]: 0.256

CC1(C)CCC(CN2CCN(c3ccc(C(=O)NS(=O)(=O)c4ccc(NCC5CCOCC5)c([N+](=O)[O-])c4)c(Oc4cnc5[nH]ccc5c4)c3)CC2)=C(c2ccc(Cl)cc2)C1 [Venetoclax] + Cn1cnc2c(F)c(Nc3ccc(Br)cc3Cl)c(C(=O)NOCCO)cc21 [Selumetinib] (first compound max 1 µM, 7x7, partner max 3 µM)
combination Emax [1]: 0.214
combination Emax [2]: 0.134
combination Emax [3]: 0.315
combination Emax [4]: 0.441
combination Emax (NCI-H28 (Mesothelioma)): 0.142
combination Emax (HMV-II (Melanoma)): 0.779
combination Emax [5]: 0.507
combination Emax [6]: 0.205
